How the values were obtained:
mTOR = mTOR (Homo sapiens, UniProt P42345); test: In vitro kinase profile, PI3K alpha_MTOR score; format: biochemical
Protocol: (§1) The effect of each compound on the PI3K/AKT/MTOR pathway was evaluated in two ways: via a kinase profile (FIG. 23) and via phospho imaging assays (i.e., immunofluorescence assays using antibodies specific for the phosphorylated form of mTOR or AKT). In vitro kinase profiling provided percent inhibition for numerous targets within the PI3K cell signaling pathway, and cell-based imaging assays were performed to directly visualize the effect of each compound on phosphorylated Akt and phosphorylated mTOR in the cell system used for differentiation.
(§2) In column 2 of Table 6, the PI3K alpha_MTOR score reflects the ability of a compound to inhibit the phosphorylation of PI3K alpha and mTOR, where + indicates minimal inhibition, and +++ indicates maximal inhibition. In column 3 of Table 6, the score indicates the ratio of phosphorylated mTOR (as measured by fluorescence intensity) in cells treated with a compound and the phosphorylated mTOR (as measured by fluorescence intensity) in cells that were not treated with the compound. In column 4 of Table 6, the score indicates the ratio of phosphorylated AKT (as measured by fluorescence intensity) in cells treated with a compound and the phosphorylated AKT (as measured by fluorescence intensity) in cells that were not treated with the compound. A reported effect of AKT inhibitors is an increase in phosphorylated AKT.

Akt = test: In vitro kinase profile; format: biochemical
Protocol: as §1

phosphorylated mTOR = test: Phospho imaging assay (immunofluorescence); format: cell-based, human
Protocol: as §1, §2

phosphorylated AKT = test: Phospho imaging assay (immunofluorescence); format: cell-based, human
Protocol: as §1, §2

[1] = test system: hESC-derived endoderm cells; test: CellTiter-Glo Luminescent Cell Viability Assay; format: cell-based, human; conditions: Activin A + 100 nM to 1.5 μM Compound A, 7 days
Source text: In this assay, metabolically active cells in each sample tested were quantified as a function of ATP levels produced by the sample.

[2] = test system: human embryonic stem cells (hESC); test: Endoderm differentiation of hESC with small-molecule inhibitors, flow cytometry of endoderm markers; format: cell-based
Source text: A variety of cell-type specific markers were used to monitor the differentiation of stem cells into endoderm cells in the flow cytometry, fluorescence imaging, and immunoassay experiments described below. To detect endoderm conversion, hESC-derived cell samples were stained for the expression of SOX17, FoxA2, and CXCR4 proteins. SOX17, FoxA2, and CXCR4 are proteins that are expressed by endoderm cells but not by stem cells. To detect stem cells, cell samples were stained for the expression of OCT4, a protein expressed by stem cells but not by endoderm cells.
Undifferentiated human embryonic stem cells (hES) were maintained at a density of 40,000 cells/cm^2 on qualified matrigel (BD, #354277) in TesR™2 medium ([…]™ Technologies #05860). Cultures were manually passaged twice a week. To prepare for endoderm differentiation, hESC cells were passaged into TesR™2 medium overnight. The following day, the TesR™2 medium was replaced with basal medium (DMEM/F12+Glutamax (Invitrogen, #10565) supplemented with B27 (Invitrogen, #17504-044)). No human embryos were destroyed in the process of obtaining stem cells for these methods. Furthermore, the plurality of stem cells is not obtained by the prior destruction of human embryos.
Unless otherwise noted, basal medium was supplemented with […] human Activin A (Peprotech, #120-14). When indicated, basal medium was also supplemented with an effective amount of, e.g., a growth factor such as […] human Wnt3a (R&D, #5036-WN-010), an isoform-specific P13K inhibitor or an mTOR inhibitor. […]
To prepare the cells for flow cytometry, hESC-derived cells grown under endoderm differentiation conditions were dissociated using Accutase (Innovative Cell technologies, #AT-104). Briefly, the cells were washed once in PBS, incubated with Accutase for 10 minutes at room temperature, pelleted, and washed in cold PBS. The Accutase-dissociated hESC-derived cell samples were stained with anti-CXC4 antibody, anti-SOX17 antibody, or anti-FoxA2 antibody. Additional cell samples were stained with isotype control antibodies (e.g., IgG1 or IgG2).
The cells that were to be stained with anti-CXCR4 antibody were washed once with cold DPBS and then directly stained with mouse anti-human CD184 (CXCR4)-IgG2-PE (BD, #555974) for one hour at 4° C. The cells that were to be stained with anti-SOX17 antibody or anti-FoxA2 antibody were first fixed for 25 minutes at 4° C. in fixation buffer (BD, #554655) and permeabilized for 30 minutes on ice in Perm Buffer III (BD, #554656). Anti-SOX17 staining was performed using a mouse anti-SOX17 IgG1-PE antibody (BD, #561591) at room temperature for 30 minutes. Anti-FoxA2 staining was performed using a mouse anti-human FoxA2 IgG1 (BD, #561589) under the same conditions. A control sample of cells were fixed as described above and stained with either an anti-IgG1-PE antibody (BD, #554680) at room temperature for 30 minutes or an anti-IgG2-PE antibody (BD, #55574) for one hour at 4° C.
The antibody-stained hESC-derived cells were then analyzed via flow cytometry using a BD LSRFortessa™ cell analyzer. […] Approximately 1×10^6 cells were analyzed per sample.

hESC-derived cells = test: xCELLigence proliferation and viability time course; format: cell-based, human; conditions: 12 days, no medium change; Activin A + 750 nM Compound A, or Activin A + Wnt3a + 5 μM LY294002
Protocol: The hESC-derived cells grown under each condition were assayed for their proliferation and viability once a day for 12 days with no medium change using Roche's xCELLigence System according to standard protocol.
xCELLigence measured proliferation and viability as a function of impedance signal. High impedance signals indicated cell attachment to the surface of the culture dish, which is associated with increased proliferation. In contrast low impedance signals indicated cells' detachment from the surface of the culture dish, which is associated with cell death. […] The experiments whose results are depicted in FIG. 8 were performed in duplicate. Accordingly, there are two curves for each condition.

[3] = test system: human embryonic stem cells (hESC); test: AlphaLISA of SOX17 and OCT4 in hESC-derived cells; format: cell-based
Protocol: To detect OCT4, the cells were washed three times in PBS and lysed with 50 ul AlphaLISA Lysis Buffer (Perkin Elmer, #AL003C). The lysis buffer was added to each cell sample and mixed with the cells five times. The cell samples were then incubated in a plate shaker at room temperature for 15 minutes. 5 μl of the lysate from each sample was then transferred to a 384 well OptiPlate (Perkin Elmer, #6005629). 5 μl of 10 ug/ml anti-rabbit acceptor bead (Perkin Elmer, #AL104M) and […] of 0.2 nM of rabbit anti-OCT4 antibody (Cell Signaling, #2890) was added to each well and incubated for 2 hours at room temperature. Following the incubation, 5 μl of 0.5 nM mouse anti-OCT4 antibody (BD, #611203) and […] of 0.5 nM biotinylated goat anti-mouse antibody (Invitrogen, #B2763) were added to each well and incubated at room temperature for 2 hours. Following the incubation, […] of streptavidin donor beads (Perkin Elmer, #6760002B) were added to each well and incubated for 30 minutes. The OptiPlates were then analyzed using an Envision Multilabel Plate Reader (Perkin Elmer, #2104-0010). All beads and antibodies were diluted as necessary in IAB Buffer (Perkin Elmer, #AL000C)+50 mM NaCl. Four replicate assays were performed.
To detect SOX17, the cells were washed three times in PBS and lysed with 50 ul Roche Complete Lysis Buffer (Roche, #04719956001). The lysis buffer was added to each cell sample and mixed with the cells five times. The cell samples were then incubated in a plate shaker at room temperature for 15 minutes. 5 μl of the lysate from each sample was then transferred to a 384 well OptiPlate (Perkin Elmer, #6005629). 5 μl of 10 ug/ml anti-rabbit acceptor bead (Perkin Elmer, #AL104M) and […] of 1 nM of rabbit anti-SOX17 antibody (Sigma, #AV33271) was added to each well and incubated for 2 hours at room temperature. Following the incubation, 5 μl of 0.5 nM mouse anti-SOX antibody (Sigma, #SAB3300093) and […] of 0.5 nM biotinylated goat anti-mouse antibody (Invitrogen, #B2763) were added to each well and incubated at room temperature for 2 hours. Following the incubation, […] of streptavidin donor beads (Perkin Elmer, #6760002B) were added to each well and incubated for 30 minutes. The OptiPlates were then analyzed using an Envision Multilabel Plate Reader (Perkin Elmer, #2104-0010). All beads and antibodies were diluted as necessary in IAB Buffer (Perkin Elmer, #AL000C) Four replicate assays were performed.
After a 3-day treatment, cells were harvested and stained with anti-SOX17 antibody as described above in preparation for AlphaLISA analysis.

[4] = test system: human embryonic stem cells (hESC); test: Dose response with Activin A for optimal concentration (SOX17, cell death); format: cell-based
Protocol: To facilitate extended characterization, it was necessary to determine the optimal concentration of each of the compounds for use subsequent experiments. The optimal concentration of each compound was determined based on two parameters: highest efficiency of endoderm differentiation and low toxicity. Each compound was tested with Activin A in a dose response manner. The concentration that gave the highest % SOX17 expressing cells at Day 3 without causing more than 30% cell death compared to control was determined for each compound. The yield of differentiation went from 4% to 81% SOX17+ cells at day 3.

PI3K alpha = PI3K alpha (Homo sapiens, UniProt P42336); test: In vitro kinase profile, PI3K alpha_MTOR score; format: biochemical
PI3K alpha, sequence (P42336 whole entry, species assumed): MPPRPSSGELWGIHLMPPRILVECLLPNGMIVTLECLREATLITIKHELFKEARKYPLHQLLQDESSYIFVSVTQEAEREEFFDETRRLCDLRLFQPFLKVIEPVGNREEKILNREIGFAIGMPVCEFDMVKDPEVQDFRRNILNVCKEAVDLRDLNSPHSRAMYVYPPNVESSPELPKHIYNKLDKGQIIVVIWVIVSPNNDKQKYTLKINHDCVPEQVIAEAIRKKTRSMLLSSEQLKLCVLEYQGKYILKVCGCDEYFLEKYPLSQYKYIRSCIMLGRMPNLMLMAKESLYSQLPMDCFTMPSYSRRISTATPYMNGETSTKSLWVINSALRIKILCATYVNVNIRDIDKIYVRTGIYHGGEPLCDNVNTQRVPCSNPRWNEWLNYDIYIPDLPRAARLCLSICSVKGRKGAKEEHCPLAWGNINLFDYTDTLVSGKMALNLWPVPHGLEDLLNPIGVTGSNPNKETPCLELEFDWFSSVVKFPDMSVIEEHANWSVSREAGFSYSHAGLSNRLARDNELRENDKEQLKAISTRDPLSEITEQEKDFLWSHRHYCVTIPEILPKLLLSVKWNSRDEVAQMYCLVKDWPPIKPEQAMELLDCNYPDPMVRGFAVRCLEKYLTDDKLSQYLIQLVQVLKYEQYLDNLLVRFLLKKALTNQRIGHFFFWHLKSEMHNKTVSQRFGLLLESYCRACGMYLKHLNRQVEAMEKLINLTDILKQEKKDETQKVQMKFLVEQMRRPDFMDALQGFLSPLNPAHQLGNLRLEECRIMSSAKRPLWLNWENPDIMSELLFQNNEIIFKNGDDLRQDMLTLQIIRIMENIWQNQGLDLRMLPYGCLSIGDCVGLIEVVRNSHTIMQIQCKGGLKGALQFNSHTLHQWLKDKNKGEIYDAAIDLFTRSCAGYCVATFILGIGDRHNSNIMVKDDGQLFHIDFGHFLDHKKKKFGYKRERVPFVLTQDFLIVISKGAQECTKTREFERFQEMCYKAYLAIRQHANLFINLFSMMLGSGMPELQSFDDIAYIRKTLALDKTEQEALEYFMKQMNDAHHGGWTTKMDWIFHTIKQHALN
PI3K alpha, sequence (P27986 whole entry partner, species assumed): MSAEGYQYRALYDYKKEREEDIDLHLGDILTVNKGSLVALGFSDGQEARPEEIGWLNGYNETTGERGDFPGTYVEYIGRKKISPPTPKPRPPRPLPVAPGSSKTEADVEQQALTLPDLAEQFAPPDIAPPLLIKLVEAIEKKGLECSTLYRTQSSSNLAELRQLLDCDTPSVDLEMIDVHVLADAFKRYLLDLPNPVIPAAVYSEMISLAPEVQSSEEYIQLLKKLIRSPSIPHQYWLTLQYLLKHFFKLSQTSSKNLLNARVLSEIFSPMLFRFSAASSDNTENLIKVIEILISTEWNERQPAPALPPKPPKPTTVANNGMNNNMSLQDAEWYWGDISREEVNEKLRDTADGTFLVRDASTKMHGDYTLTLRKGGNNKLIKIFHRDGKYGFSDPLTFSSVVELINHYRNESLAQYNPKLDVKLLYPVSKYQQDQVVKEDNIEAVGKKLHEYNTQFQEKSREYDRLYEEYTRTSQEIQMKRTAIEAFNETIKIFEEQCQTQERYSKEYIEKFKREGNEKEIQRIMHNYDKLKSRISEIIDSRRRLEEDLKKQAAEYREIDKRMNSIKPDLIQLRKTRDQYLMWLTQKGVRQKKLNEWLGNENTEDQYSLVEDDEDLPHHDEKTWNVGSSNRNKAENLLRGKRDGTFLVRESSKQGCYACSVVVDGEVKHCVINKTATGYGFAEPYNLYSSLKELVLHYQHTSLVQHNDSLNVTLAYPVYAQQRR
Protocol: as §1, §2

[5] = test system: hESC-derived endoderm cells; test: Hepatocyte differentiation of endoderm cells, flow cytometry; format: cell-based, human; conditions: hepatoblast medium in the absence of FGF4 and BMP2
Protocol: After 10-day treatment, the endoderm-derived cells were harvested using TrypLE. Briefly, the cells were washed once in PBS, incubated with TrypLE for 5 minutes at 37° C. The incubated cells were then diluted 10-fold with PBS, pelleted, and prepared for further analysis.
Prior to flow cytometry analysis, the Accutase-dissociated endoderm-derived cell samples were stained with an anti-AFP primary antibody followed by a secondary antibody.
The harvested endoderm-derived cells were washed with cold DPBS. […] The cells were washed three more times in permeabilization/wash buffer prior to flow cytometry analysis.
HepG2 cells, which were derived from a well-differentiated hepatocellular carcinoma, were also stained as a positive control. The cells were analyzed via flow cytometry as described above. Approximately 1.5×10^6 cells were analyzed per sample.
Endoderm cells were treated with different combinations of growth factors and tested for their capability to differentiate into hepatocytes. hESC were differentiated into endoderm cells as described above. […] After 10 days of treatment, the endoderm-derived cells were prepared for flow cytometry and imaging analysis as described above.
An additional control sample was prepared in which endoderm cells obtained by culture with Activin A alone were cultured in hepatoblast medium in the absence of any additional growth factors. […]

[6] = time course, Activin A + 750 nM Compound A, no Wnt3a, day 5
[7] = dose response of Compound A with Activin A
[8] = Activin A + 750 nM inhibitor, no Wnt3a, 3-day treatment

In the case of `COc1ccc(COc2cc3oc(=O)c4cc(C(C)O)ccc4c3cc2OC)cc1` (stereo not drawn) [Palomid 529], the “reduction of phosphorylation of mTOR (FIG. 23)” value (shortened to “reduction … of mTOR (FIG. 23)”) (mTOR) is reported as “did not show reduction of phosphorylation of mTOR or Akt”, the “reduction of phosphorylation of Akt (FIG. 23)” value (Akt) is reported as “did not show reduction of phosphorylation of mTOR or Akt” and the “effect on mTOR phosphorylation in cell-based imaging assays” value (phosphorylated mTOR) is reported as “did not exhibit any effects on Akt or mTOR phosphorylation”. The “effect on Akt phosphorylation in cell-based imaging assays” value (phosphorylated AKT) was “did not exhibit any effects on Akt or mTOR phosphorylation”.

`CS(=O)(=O)N1CCN(Cc2cc3nc(-c4cccc5[nH]ncc45)nc(N4CCOCC4)c3s2)CC1` [Compound A, 4-[2-(1H-indazol-4-yl)-6-[(4-methylsulfonylpiperazin-1-yl)methyl]thieno[3,2-d]pyrimidin-4-yl]morpholine] was tested, and the “viability (ATP levels)” value [1] was “greater viability at 7 days”, the “% of hESC-derived cells expressing SOX17” value ([2]; Activin A + Wnt3a + 500 nM inhibitor, 3-day treatment) was 93.5-93.9% and the “% of hESC-derived cells expressing SOX17” value ([2]; dose response, Activin A + 750 nM Compound A, no Wnt3a, 3-day treatment) was 84%. For the same molecule, the “% of hESC-derived cells expressing SOX17” value ([2]; isoform-specific PI3K inhibitor + Activin A alone, 3-day treatment) was “about 77.35%”, the “% of hESC-derived cells expressing CXCR4” value [2, 6] was 82% and the “% of hESC-derived cells expressing FoxA2” value [2, 6] was 87%. The “% of hESC-derived cells expressing SOX17” value [2, 6] was 91%, the “viability and proliferation (impedance signal)” value (hESC-derived cells) was “remain viable and proliferative past day 4” and the “OCT4 expression (AlphaLISA)” value [3, 7] was “decreases”. For the same molecule, the “SOX17 expression (AlphaLISA)” value [3, 7] was “increases with increasing concentrations of Compound A up to 750 nM”.

For `CO[C@@H]1[C@H](N(C)C(=O)c2ccccc2)C[C@H]2O[C@]1(C)n1c3ccccc3c3c4c(c5c6ccccc6n2c5c31)C(=O)NC4` [PKC412], the “reduction … of mTOR (FIG. 23)” value (mTOR) was “potent reduction of phosphorylation” and the toxicity [4] was “may be toxic”.

In the case of `CCNC(=O)Nc1ccc2ncc(Nc3ccc(C)cc3)nc2n1` [Compound D1066], the “reduction … of mTOR (FIG. 23)” value (mTOR) is reported as “did not show reduction of phosphorylation of mTOR or Akt”, the “reduction of phosphorylation of Akt (FIG. 23)” value (Akt) is reported as “did not show reduction of phosphorylation of mTOR or Akt” and the “effect on mTOR phosphorylation in cell-based imaging assays” value (phosphorylated mTOR) is reported as “did not exhibit any effects on Akt or mTOR phosphorylation”. The “effect on Akt phosphorylation in cell-based imaging assays” value (phosphorylated AKT) was “did not exhibit any effects on Akt or mTOR phosphorylation”.

For `COc1ccc(-c2ccc3c(N4CCOCC4)nc(N4C[C@@H](C)O[C@@H](C)C4)nc3n2)cc1CO` [KU0063794], the “endoderm conversion (SOX17, FoxA2, CXCR4 flow cytometry)” value [2, 8] was “higher degree of endoderm conversion”, the “PI3K alpha_MTOR score: MTOR” value (mTOR) was “+++” and the “PI3K alpha_MTOR score: PI3K alpha” value (PI3K alpha) was “+”. For the same molecule, the “Avg(Avg (Ph MTOR_60m_%C # Spots))” value (phosphorylated mTOR; 60 min, treated versus untreated cells, fluorescence intensity) was 25.83 %C and the “endoderm conversion (SOX17 AlphaLISA)” value [3, 8] was “better endoderm conversion than cells cultured in Activin A alone or cells cultured with an Akt inhibitor”.

B1: Activin A: human Activin A (Peprotech), member of the TGF beta family (protein, UniProt P08476 311-426, looked up)
Inhibin beta A chain: GLECDGKVNICCKKQFFVSFKDIGWNDWIIAPSGYHANYCEGECPSHIAGTSGSSLSFHSTVINHYRMRGHSPFANLKSCCVPTKLRPMSMLYYDDGQNIIKKDIQNMIVEECGCS
modifications: Inhibin beta A chain homodimer
With B1 the “% of endoderm-derived cells expressing AFP” value [5] was 7.65% and the “% of hESC-derived cells expressing SOX17” value ([2]; Activin A alone, 3-day treatment) was 20%.

Reference: patent US20170002313A1, “COMPOSITIONS AND METHODS OF OBTAINING AND USING ENDODERM AND HEPATOCYTE CELLS” (Genentech Inc., priority 2012, published 2017)
